Laboratory results: US20100168143A1, “QUINAZOLINE DERIVATIVES” (ASTRAZENECA AB, priority 2006, published 2010)

Tests used:
[1] = system: phosphohistone H3 levels in drug-resistant MCF7-ADR human breast tumour cells; assay: In vitro drug-resistant cell phenotype and substrate phosphorylation assay (MCF7-ADR); format: cell-based; conditions: NCI/ADR-RES, 24 hours of treatment, read-out: EC50 for inhibition of phosphohistone H3 levels
Procedure: (d) In Vitro Drug-Resistant Cell Phenotype and Substrate Phosphorylation Assay.
This assay is used to determine the cellular effects of compounds on drug-resistant MCF7-ADR human breast tumour cells in vitro.
Compounds typically cause inhibition of levels of phosphohistone H3 and an increase in the nuclear area of treated cells.
0.8×10^4 MCF7-ADR cells per well were plated in 100 μl DMEM media (containing 10% FCS (foetal calf serum) and 1% glutamine) in costar 96 well plates and left overnight at 37° C. and 5% CO2 to adhere.
All other procedures are identical to those for the above assay using SW620 cells.
The compounds of the invention generally have EC50 values for inhibition of phosphohistone H3 levels of […], particularly 0.5 nM to 1 μM and more particularly 0.5 nM to 0.5 μM.

aurora B kinase = aurora B kinase (Homo sapiens, UniProt Q96GD4); assay: In vitro aurora B kinase inhibition test; format: biochemical; conditions: aurora B-INCENP enzyme; 33P-ATP filter assay, 60 minutes; read-out: IC50 (50% inhibition of enzyme activity), aurora B
Text: (b) In Vitro Aurora B Kinase Inhibition Test
This assay determines the ability of a test compound to inhibit serine-threonine kinase activity. DNA encoding aurora B may be obtained by total gene synthesis or by cloning. This DNA may then be expressed in a suitable expression system to obtain polypeptide with serine-threonine kinase activity. In the case of aurora B, the coding sequence was isolated from cDNA by polymerase chain reaction (PCR) and cloned into the pFastBac system in a manner similar to that described above for aurora A (i.e. to direct expression of a 6-histidine tagged aurora B protein).
For the large scale expression of aurora B kinase activity, Sf21 insect cells were grown at 28° C. in TC100 medium supplemented with 10% foetal calf serum (Viralex) and 0.2% F68 Pluronic (Sigma) on a Wheaton roller rig at 3 r.p.m. When the cell density reached 1.2×10^6 cells ml^−1 they were infected with plaque-pure aurora B recombinant virus at a multiplicity of infection of 1 and harvested 48 hours later. All subsequent purification steps were performed at 4° C. […]

Sequence of aurora B kinase (Q96GD4 whole entry): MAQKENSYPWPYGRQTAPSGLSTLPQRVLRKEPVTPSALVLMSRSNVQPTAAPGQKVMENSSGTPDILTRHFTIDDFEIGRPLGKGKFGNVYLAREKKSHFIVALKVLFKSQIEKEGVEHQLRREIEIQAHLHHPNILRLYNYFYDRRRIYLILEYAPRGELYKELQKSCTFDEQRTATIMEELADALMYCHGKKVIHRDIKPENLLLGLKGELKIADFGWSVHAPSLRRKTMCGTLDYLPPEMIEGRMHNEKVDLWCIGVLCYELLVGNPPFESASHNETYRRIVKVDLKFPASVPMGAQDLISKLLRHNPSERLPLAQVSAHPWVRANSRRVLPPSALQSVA
Sequence of aurora B kinase (Q9NQS7 826-918 partner limits assumed): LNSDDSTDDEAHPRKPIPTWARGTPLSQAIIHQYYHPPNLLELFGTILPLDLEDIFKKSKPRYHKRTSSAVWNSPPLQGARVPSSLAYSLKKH

| EC50 [1] | IC50 (aurora B kinase) | SMILES |
| --- | --- | --- |
| 20 nM | 1.4 nM | COc1cc(OC[C@H]2CCCCN2)c2c(Nc3cnn(CC(=O)Nc4cccc(F)c4F)c3)ncnc2c1 [compound 2, N-(2,3-difluorophenyl)-2-[4-({7-methoxy-5-[(2R)-piperidin-2-ylmethoxy]quinazolin-4-yl}amino)-1H-pyrazol-1-yl]acetamide] |
| 120 nM | – | COc1cc(OC[C@H]2CCCN2)c2c(Nc3cnn(CC(=O)Nc4cccc(F)c4F)c3)ncnc2c1 [Prior art compound (I), reference compound] |
| < 1 nM | 1.4 nM | CCOc1cc(OC[C@H]2CCCCN2)c2c(Nc3cnn(CC(=O)Nc4cccc(F)c4F)c3)ncnc2c1 [compound 1] |
